Reference: the supplement of paper PMC11061612

Legend:
Experiment in all cases: Bliss excess, mean over the matrix (fraction); higher = more synergy
[1] = system: SU-DHL-6 (B-Cell Non-Hodgkin's Lymphoma)
Outline: (§1)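 After 24 hours at 37°C and 5% CO2 in 1536-well plates, cells in DMEM/F12 or RPMI plus 10% FBS received two-drug dose matrices for 72 hours. Viability came from CellTiter-Glo 2.0 luminescence and was scaled as inhibition, anchored at 0 by vehicle wells and at 1 by blank wells. Combination Emax is taken as the second-highest inhibition in the matrix, and Bliss excess as the observed combination effect less EA + EB − EA·EB, with EA and EB the single-agent effects.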

[2] = system: HDLM-2 (Hodgkin's Lymphoma)
Outline: as §1

[3] = system: MHH-PREB-1 (B-Cell Non-Hodgkin's Lymphoma)
Outline: as §1

Mewo (Melanoma) = system: Mewo (Melanoma)
Outline: as §1

NB14 (Neuroblastoma) = system: NB14 (Neuroblastoma)
Outline: as §1

[4] = system: UMC-11 (Other Solid Carcinomas)
Outline: as §1

[5] = system: HARA (Squamous Cell Lung Carcinoma)
Outline: as §1

[6] = system: K5 (Thyroid Gland Carcinoma)
Outline: as §1

[7] = system: RKO (Colorectal Carcinoma)
Outline: as §1

[8] = system: SUP-T1 (T-Lymphoblastic Leukemia)
Outline: as §1

NCI-H28 (Mesothelioma) = system: NCI-H28 (Mesothelioma)
Outline: as §1

[9] = system: HCC-15 (Squamous Cell Lung Carcinoma)
Outline: as §1

[10] = system: Hs-633T (Other Solid Carcinomas)
Outline: as §1

[11] = system: TE-4 (Esophageal Squamous Cell Carcinoma)
Outline: as §1

[12] = system: LoVo (Colorectal Carcinoma)
Outline: as §1

[13] = system: RT-112 (Bladder Carcinoma)
Outline: as §1

[14] = system: 639-V (Bladder Carcinoma)
Outline: as §1

NCI-H2461 (Mesothelioma) = system: NCI-H2461 (Mesothelioma)
Outline: as §1

[15] = system: SW1116 (Colorectal Carcinoma)
Outline: as §1

HMV-II (Melanoma) = system: HMV-II (Melanoma)
Outline: as §1

SMILES | Bliss excess [1] | Bliss excess [2] | Bliss excess [3] | Bliss excess (Mewo (Melanoma)) | Bliss excess (NB14 (Neuroblastoma)) | Bliss excess [4] | Bliss excess [5] | Bliss excess [6] | Bliss excess [7] | Bliss excess [8] | Bliss excess (NCI-H28 (Mesothelioma)) | Bliss excess [9] | Bliss excess [10] | Bliss excess [11] | Bliss excess [12] | Bliss excess [13] | Bliss excess [14] | Bliss excess (NCI-H2461 (Mesothelioma)) | Bliss excess [15] | Bliss excess (HMV-II (Melanoma))
CC1(C)CCC(CN2CCN(c3ccc(C(=O)NS(=O)(=O)c4ccc(NCC5CCOCC5)c([N+](=O)[O-])c4)c(Oc4cnc5[nH]ccc5c4)c3)CC2)=C(c2ccc(Cl)cc2)C1 [Venetoclax] + CN(C)CCCOc1ccc(-c2ccc3ncc4c(c3c2)n(C2CCOCC2)c(=O)n4C)cn1 [AZD0156] (first compound max 1 µM, 7x7, partner max 1 µM) | 0.036 | -0.0015 | 0.0029 | -0.0483 | -0.0017 | -0.0004 | -0.0121 | -0.0635 | 0.0566 | -0.0294 | -0.0547 | -0.0196 | -0.0023 | -0.0191 | -0.0251 | -0.0232 | 0.02 | -0.0535 | -0.0409 | 0.0134
CN(C)CCCOc1ccc(-c2ccc3ncc4c(c3c2)n(C2CCOCC2)c(=O)n4C)cn1 [AZD0156] + CCN(CCO)CCCOc1ccc2c(Nc3cc(CC(=O)Nc4cccc(F)c4)[nH]n3)ncnc2c1 [AZD2811] (first compound max 1 µM, 7x7, partner max 1 µM) | -0.0026 | -0.0208 | 0.0053 | -0.0477 | -0.0955 | -0.0622 | 0.0136 | -0.0334 | 0.014 | 0.0321 | -0.0381 | -0.0506 | -0.0139 | -0.0129 | 0.0047 | -0.0098 | 0.0064 | -0.0293 | -0.0339 | -0.0133
NC1(C(=O)N[C@@H](CCO)c2ccc(Cl)cc2)CCN(c2ncnc3[nH]ccc23)CC1 [Capivasertib] + Cn1cnc2c(F)c(Nc3ccc(Br)cc3Cl)c(C(=O)NOCCO)cc21 [Selumetinib] (first compound max 10 µM, 7x7, partner max 10 µM) | 0.0255 | -0.0118 | -0.0067 | 0.0069 | -0.0654 | 0.0032 | -0.0186 | 0.0944 | 0.0463 | 0.0063 | -0.0231 | 0.0366 | 0.0259 | 0.102 | -0.004 | 0.01 | -0.0183 | -0.0393 | 0.0203 | -0.005
C[C@@H](c1ccc2nccn2c1)n1nnc2ncc(-c3cnn(C)c3)nc21 [Savolitinib] + Cc1c2c(nn1C)CSCc1cc(n(C)n1)CSc1cc(c3ccccc3c1)OCCCc1c(C(=O)O)n(C)c3c-2c(Cl)ccc13 [AZD5991] (first compound max 1 µM, 7x7, partner max 1 µM) | -0.013 | -0.0099 | -0.0375 | -0.0237 | -0.0411 | -0.0026 | -0.0353 | -0.0085 | -0.0067 | -0.0571 | -0.0643 | -0.0349 | -0.0551 | -0.0289 | -0.0331 | -0.0265 | -0.111 | -0.048 | -0.0252 | -0.0404
C=CCn1c(=O)c2cnc(Nc3ccc(N4CCN(C)CC4)cc3)nc2n1-c1cccc(C(C)(C)O)n1 [AZD1775] + C[C@@H]1COCCN1C2=NC(=NC(=C2)C3(CC3)[S@](=N)(=O)C)C4=C5C=CNC5=NC=C4 [AZD6738] (first compound max 1 µM, partner max 10 µM) | 0.0458 | -0.0511 | 0.0075 | 0.026 | 0.0462 | -0.0454 | -0.0239 | -0.0453 | 0.0529 | -0.0352 | 0.0066 | 0.0035 | 0.0309 | 0.0485 | -0.0212 | 0.0578 | 0.0455 | -0.081 | -0.0075 | -0.0327
CC1(C)CCC(CN2CCN(c3ccc(C(=O)NS(=O)(=O)c4ccc(NCC5CCOCC5)c([N+](=O)[O-])c4)c(Oc4cnc5[nH]ccc5c4)c3)CC2)=C(c2ccc(Cl)cc2)C1 [Venetoclax] + Cn1cnc2c(F)c(Nc3ccc(Br)cc3Cl)c(C(=O)NOCCO)cc21 [Selumetinib] (first compound max 1 µM, 7x7, partner max 3 µM) | 0.0155 | -0.0245 | 0.0028 | -0.0252 | -0.0221 | -0.0424 | -0.0084 | -0.0402 | 0.0171 | -0.0723 | -0.0449 | 0.0315 | -0.0386 | -0.0277 | -0.0458 | 0.0554 | 0.0346 | -0.0175 | -0.0736 | -0.0317
Cc1c2c(nn1C)CSCc1cc(n(C)n1)CSc1cc(c3ccccc3c1)OCCCc1c(C(=O)O)n(C)c3c-2c(Cl)ccc13 [AZD5991] + CC1(C)CCC(CN2CCN(c3ccc(C(=O)NS(=O)(=O)c4ccc(NCC5CCOCC5)c([N+](=O)[O-])c4)c(Oc4cnc5[nH]ccc5c4)c3)CC2)=C(c2ccc(Cl)cc2)C1 [Venetoclax] (first compound max 1 µM, 7x7, partner max 1 µM) | 0.0744 | 0.162 | -0.0301 | 0.0377 | 0.255 | 0.0749 | -0.0091 | -0.0325 | 0.0107 | -0.0207 | -0.0812 | -0.0271 | -0.016 | 0.0017 | -0.0217 | 0.057 | 0.0009 | -0.0237 | -0.0215 | -0.0257
Cn1cnc2c(F)c(Nc3ccc(Br)cc3Cl)c(C(=O)NOCCO)cc21 [Selumetinib] + C[C@@H]1COCCN1C2=NC(=NC(=C2)C3(CC3)[S@](=N)(=O)C)C4=C5C=CNC5=NC=C4 [AZD6738] (first compound max 10 µM, 7x7, partner max 10 µM) | 0.0102 | -0.0422 | -0.0416 | -0.0236 | -0.0232 | 0.0001 | -0.0115 | 0.045 | -0.0041 | -0.0747 | -0.0096 | 0.0787 | -0.0012 | -0.0063 | -0.0381 | -0.0088 | 0.0585 | -0.026 | -0.0148 | -0.0384
CC(=O)c1c(C)c2cnc(Nc3ccc(N4CCNCC4)cn3)nc2n(C2CCCC2)c1=O [Palbociclib] + CC1(C)CCC(CN2CCN(c3ccc(C(=O)NS(=O)(=O)c4ccc(NCC5CCOCC5)c([N+](=O)[O-])c4)c(Oc4cnc5[nH]ccc5c4)c3)CC2)=C(c2ccc(Cl)cc2)C1 [Venetoclax] (first compound max 10 µM, 7x7, partner max 1 µM) | 0.0694 | 0.0073 | -0.0187 | -0.0235 | -0.0103 | 0.0737 | 0.0119 | 0.0216 | -0.0498 | -0.0942 | -0.0169 | -0.0364 | -0.0251 | -0.0113 | -0.0178 | 0 | -0.0686 | -0.0712 | -0.0435 | -0.0895
Cc1nc(Nc2ncc(C(=O)Nc3c(C)cccc3Cl)s2)cc(N2CCN(CCO)CC2)n1 [Dasatinib] + CC(=O)Nc1cccc(-n2c(=O)n(C3CC3)c(=O)c3c(Nc4ccc(I)cc4F)n(C)c(=O)c(C)c32)c1 [Trametinib] (first compound max 2 µM, 7x7, partner max 1 µM) | 0.0272 | -0.0467 | -0.0504 | 0.0254 | -0.065 | -0.0733 | -0.0523 | 0.0175 | 0.119 | -0.0967 | -0.0021 | 0.193 | 0.0302 | -0.12 | 0.104 | -0.0344 | -0.0398 | -0.0384 | 0.0459 | -0.136
NC1(C(=O)N[C@@H](CCO)c2ccc(Cl)cc2)CCN(c2ncnc3[nH]ccc23)CC1 [Capivasertib] + CC(=O)c1c(C)c2cnc(Nc3ccc(N4CCNCC4)cn3)nc2n(C2CCCC2)c1=O [Palbociclib] (first compound max 10 µM, 7x7, partner max 10 µM) | 0.0059 | -0.0222 | -0.0158 | -0.0588 | 0.0419 | 0.039 | 0.0388 | -0.0106 | 0.0625 | -0.0239 | -0.0343 | -0.0442 | 0.0179 | 0.0094 | -0.03 | -0.0324 | -0.0612 | -0.0609 | -0.0297 | -0.0138
Cc1c2c(nn1C)CSCc1cc(n(C)n1)CSc1cc(c3ccccc3c1)OCCCc1c(C(=O)O)n(C)c3c-2c(Cl)ccc13 [AZD5991] + Cn1cnc2c(F)c(Nc3ccc(Br)cc3Cl)c(C(=O)NOCCO)cc21 [Selumetinib] (first compound max 1 µM, 7x7, partner max 3 µM) | 0.0071 | -0.0477 | 0.0113 | -0.0417 | 0.0392 | 0.0198 | -0.0263 | -0.0216 | 0.0143 | -0.0246 | -0.026 | 0.0217 | 0.0542 | 0.0329 | 0.0074 | 0.102 | 0.0247 | -0.0131 | -0.032 | 0.0066
CN(CCO)CC[C@H](CSc1ccccc1)Nc1ccc(S(=O)(=O)NC(=O)c2ccc(N3CCC([C@@H](O)c4ccccc4-c4ccc(Cl)cc4)CC3)cc2)cc1S(=O)(=O)C(F)(F)F [AZD4320] + C[C@@H]1COCCN1C2=NC(=NC(=C2)C3(CC3)[S@](=N)(=O)C)C4=C5C=CNC5=NC=C4 [AZD6738] (first compound max 1 µM, 7x7, partner max 10 µM) | -0.0311 | -0.0171 | -0.039 | -0.0275 | -0.0372 | -0.028 | -0.0319 | -0.0512 | -0.0309 | -0.0356 | -0.0284 | -0.0124 | -0.0092 | 0.028 | -0.0355 | 0.0135 | -0.0022 | -0.0341 | -0.0406 | -0.0476
COc1nnc2ccc(N3CCC(c4ccc(OCCN5CCN(C)C(=O)[C@H]5C)cc4)CC3)nn12 [AZD5153] + Cc1c2c(nn1C)CSCc1cc(n(C)n1)CSc1cc(c3ccccc3c1)OCCCc1c(C(=O)O)n(C)c3c-2c(Cl)ccc13 [AZD5991] (first compound max 1 µM, 7x7, partner max 1 µM) | -0.0326 | -0.0401 | -0.0418 | -0.0453 | 0.034 | 0.0518 | -0.0142 | -0.0635 | -0.0293 | -0.021 | -0.0976 | -0.0105 | 0.0227 | -0.0212 | -0.0383 | 0.0039 | -0.0552 | -0.0189 | 0.0091 | -0.0092
